Values of other authors as cited in EP3137069B1, “NANOPARTICLE FORMULATION CONTAINING FARNESYLTHIOSALICYLIC ACID (SALIRASIB)” (Pehlivan, Sibel, priority 2014, dated 2015).
Converted amounts (≈) assume the structure as drawn.

In the case of CC(C)=CCCC(C)=CCCC(C)=CCSc1ccccc1C(=O)O [FTA, Farnesylthiosalicylic acid], the “solubility in organic solvents” value (organic solvents like ethanol, DMSO and dimethylformamide) is listed as 20 mg/mL (≈ 55.8 mM) and the solubility in water (water) is listed as “insoluble”.
